From ChEMBL document CHEMBL3745631, “Discovery of highly potent and selective Bruton's tyrosine kinase inhibitors: Pyridazinone analogs with improved metabolic stability” (Bioorg Med Chem Lett, 2016)

What was measured:
[1] = target: RAC-beta serine/threonine-protein kinase (Homo sapiens) (UniProt P31751); assay: Inhibition of AKT2 (unknown origin) at 1 uM
[2] = target: Serine/threonine-protein kinase 33 (Homo sapiens) (UniProt Q9BYT3); assay: Inhibition of STK33 (unknown origin) at 1 uM
[3] = target: Tyrosine-protein kinase BTK (Mus musculus, UniProt P35991); assay: Inhibition of BTK in Balb/c mouse B cells assessed as inhibition of anti-IgM-stimulated CD86 expression by flow cytometry; format: cell-based
[4] = target: Mitogen-activated protein kinase kinase kinase 20 (Homo sapiens) (UniProt Q9NYL2); assay: Inhibition of ZAK (unknown origin) at 1 uM
[5] = target: Serine/threonine-protein kinase PLK1 (Homo sapiens) (UniProt P53350); assay: Inhibition of PLK1 (unknown origin) at 1 uM
[6] = target: Serine/threonine-protein kinase 4 (Homo sapiens) (UniProt Q13043); assay: Inhibition of MST1 (unknown origin) at 1 uM
[7] = target: Insulin-like growth factor 1 receptor (Homo sapiens) (UniProt P08069); assay: Inhibition of IGF1R (unknown origin) at 1 uM
[8] = target: Tyrosine-protein kinase Tec (Homo sapiens, UniProt P42680); assay: Inhibition of TEC (unknown origin)
[9] = target: Serine/threonine-protein kinase 26 (Homo sapiens) (UniProt Q9P289); assay: Inhibition of MST4 (unknown origin) at 1 uM
[10] = target: TGF-beta-activated kinase 1 and MAP3K7-binding protein 1 (Homo sapiens) (UniProt Q15750); assay: Inhibition of TAK1-TAB1 (unknown origin) at 1 uM
Monocyte = assay: Inhibition of IC-induced TNF-alpha release in human monocytes
[11] = target: cAMP-dependent protein kinase catalytic subunit PRKX (Homo sapiens) (UniProt P51817); assay: Inhibition of PrKX (unknown origin) at 1 uM
[12] = target: Serine/threonine-protein kinase B-raf (Homo sapiens) (UniProt P15056); assay: Inhibition of B-Raf (unknown origin) at 1 uM
[13] = target: Serine/threonine-protein kinase mTOR (Homo sapiens) (UniProt P42345); assay: Inhibition of mTOR (unknown origin) at 1 uM
[14] = system: Epidermal growth factor receptor (Homo sapiens), P00533 [L858R,T790M]; assay: Inhibition of EGFR T790M,L858R mutant (unknown origin) at 1 uM; format: protein assay
[15] = target: Inhibitor of nuclear factor kappa-B kinase subunit epsilon (Homo sapiens) (UniProt Q14164); assay: Inhibition of IKKepsilon (unknown origin) at 1 uM
[16] = target: Serine/threonine-protein kinase TAO1 (Homo sapiens) (UniProt Q7L7X3); assay: Inhibition of TAO1 (unknown origin) at 1 uM
[17] = target: Ephrin type-A receptor 3 (Homo sapiens) (UniProt P29320); assay: Inhibition of EphA3 (unknown origin) at 1 uM
[18] = target: Fibroblast growth factor receptor 1 (Homo sapiens) (UniProt P11362); assay: Inhibition of FGFR1 (unknown origin) at 1 uM
Fibroblast growth factor receptor 1 (Homo sapiens), sequence (P11362 22-822 limits assumed): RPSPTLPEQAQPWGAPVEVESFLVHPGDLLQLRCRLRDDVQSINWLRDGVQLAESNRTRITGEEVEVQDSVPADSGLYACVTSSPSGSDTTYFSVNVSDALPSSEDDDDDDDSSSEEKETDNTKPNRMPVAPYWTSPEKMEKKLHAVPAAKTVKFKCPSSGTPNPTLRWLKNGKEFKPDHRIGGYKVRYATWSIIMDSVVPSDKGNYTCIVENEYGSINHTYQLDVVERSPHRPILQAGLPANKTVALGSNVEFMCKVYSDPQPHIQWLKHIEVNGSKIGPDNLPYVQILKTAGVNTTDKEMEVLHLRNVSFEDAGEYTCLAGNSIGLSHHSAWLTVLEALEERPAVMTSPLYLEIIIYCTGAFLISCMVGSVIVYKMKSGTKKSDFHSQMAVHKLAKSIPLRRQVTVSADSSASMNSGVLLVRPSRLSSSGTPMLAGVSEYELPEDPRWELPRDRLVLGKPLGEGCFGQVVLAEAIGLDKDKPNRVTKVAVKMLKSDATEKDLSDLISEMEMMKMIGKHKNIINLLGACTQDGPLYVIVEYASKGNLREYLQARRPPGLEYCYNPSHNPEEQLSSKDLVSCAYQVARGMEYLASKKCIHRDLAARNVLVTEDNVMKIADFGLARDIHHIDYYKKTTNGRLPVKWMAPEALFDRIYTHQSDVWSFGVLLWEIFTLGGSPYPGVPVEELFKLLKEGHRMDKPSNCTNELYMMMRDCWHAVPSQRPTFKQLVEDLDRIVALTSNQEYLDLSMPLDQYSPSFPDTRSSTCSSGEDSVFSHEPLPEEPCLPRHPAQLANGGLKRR

[19] = target: CDK2/Cyclin A2 (Homo sapiens) (UniProt P24941+P20248); assay: Inhibition of CDK2/cyclinA (unknown origin) at 1 uM; format: protein-complex assay
Blood = assay: Inhibition of IgE-stimulated CD63 expression in human whole blood
[20] = target: Mitogen-activated protein kinase 8 (Homo sapiens) (UniProt P45983); assay: Inhibition of JNK1 alpha1 (unknown origin) at 1 uM
[21] = target: Epidermal growth factor receptor (Homo sapiens) (UniProt P00533); assay: Inhibition of EGFR (unknown origin) at 1 uM
[22] = target: MAP/microtubule affinity-regulating kinase 3 (Homo sapiens) (UniProt P27448); assay: Inhibition of MARK3 (unknown origin) at 1 uM
[23] = target: Casein kinase II subunit alpha (Homo sapiens) (UniProt P68400); assay: Inhibition of CK2 alpha1 (unknown origin) at 1 uM
[24] = target: Activin receptor type-1B (Homo sapiens) (UniProt P36896); assay: Inhibition of ACVR1B (unknown origin) at 1 uM
Activin receptor type-1B (Homo sapiens), sequence (P36896 whole entry): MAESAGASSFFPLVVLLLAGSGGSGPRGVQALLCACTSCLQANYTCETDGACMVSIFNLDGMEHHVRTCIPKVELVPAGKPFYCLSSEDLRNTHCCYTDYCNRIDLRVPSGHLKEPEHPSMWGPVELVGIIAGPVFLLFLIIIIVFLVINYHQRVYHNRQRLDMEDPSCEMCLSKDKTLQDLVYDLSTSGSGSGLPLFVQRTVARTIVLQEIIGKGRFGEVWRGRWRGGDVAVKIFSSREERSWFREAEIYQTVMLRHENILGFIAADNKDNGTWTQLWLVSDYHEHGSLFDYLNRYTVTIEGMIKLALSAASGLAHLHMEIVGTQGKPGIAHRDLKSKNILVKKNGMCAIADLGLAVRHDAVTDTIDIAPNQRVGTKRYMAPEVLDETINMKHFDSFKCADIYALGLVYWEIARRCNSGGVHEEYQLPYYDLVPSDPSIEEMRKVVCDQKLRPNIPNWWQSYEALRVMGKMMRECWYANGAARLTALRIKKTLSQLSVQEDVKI

[25] = Oral bioavailability in dog at 5 mg/kg by LC-MS/MS analysis; format: ADME, organism-based, Canis lupus familiaris; conditions: in vivo
[26] = target: Rho-associated protein kinase 1 (Homo sapiens) (UniProt Q13464); assay: Inhibition of ROCK1 (unknown origin) at 1 uM
[27] = target: Tyrosine-protein kinase Blk (Homo sapiens) (UniProt P51451); assay: Inhibition of Blk (unknown origin) at 1 uM
[28] = target: Death-associated protein kinase 1 (Homo sapiens) (UniProt P53355); assay: Inhibition of DAPK1 (unknown origin) at 1 uM
Death-associated protein kinase 1 (Homo sapiens), sequence (P53355 whole entry, looked up): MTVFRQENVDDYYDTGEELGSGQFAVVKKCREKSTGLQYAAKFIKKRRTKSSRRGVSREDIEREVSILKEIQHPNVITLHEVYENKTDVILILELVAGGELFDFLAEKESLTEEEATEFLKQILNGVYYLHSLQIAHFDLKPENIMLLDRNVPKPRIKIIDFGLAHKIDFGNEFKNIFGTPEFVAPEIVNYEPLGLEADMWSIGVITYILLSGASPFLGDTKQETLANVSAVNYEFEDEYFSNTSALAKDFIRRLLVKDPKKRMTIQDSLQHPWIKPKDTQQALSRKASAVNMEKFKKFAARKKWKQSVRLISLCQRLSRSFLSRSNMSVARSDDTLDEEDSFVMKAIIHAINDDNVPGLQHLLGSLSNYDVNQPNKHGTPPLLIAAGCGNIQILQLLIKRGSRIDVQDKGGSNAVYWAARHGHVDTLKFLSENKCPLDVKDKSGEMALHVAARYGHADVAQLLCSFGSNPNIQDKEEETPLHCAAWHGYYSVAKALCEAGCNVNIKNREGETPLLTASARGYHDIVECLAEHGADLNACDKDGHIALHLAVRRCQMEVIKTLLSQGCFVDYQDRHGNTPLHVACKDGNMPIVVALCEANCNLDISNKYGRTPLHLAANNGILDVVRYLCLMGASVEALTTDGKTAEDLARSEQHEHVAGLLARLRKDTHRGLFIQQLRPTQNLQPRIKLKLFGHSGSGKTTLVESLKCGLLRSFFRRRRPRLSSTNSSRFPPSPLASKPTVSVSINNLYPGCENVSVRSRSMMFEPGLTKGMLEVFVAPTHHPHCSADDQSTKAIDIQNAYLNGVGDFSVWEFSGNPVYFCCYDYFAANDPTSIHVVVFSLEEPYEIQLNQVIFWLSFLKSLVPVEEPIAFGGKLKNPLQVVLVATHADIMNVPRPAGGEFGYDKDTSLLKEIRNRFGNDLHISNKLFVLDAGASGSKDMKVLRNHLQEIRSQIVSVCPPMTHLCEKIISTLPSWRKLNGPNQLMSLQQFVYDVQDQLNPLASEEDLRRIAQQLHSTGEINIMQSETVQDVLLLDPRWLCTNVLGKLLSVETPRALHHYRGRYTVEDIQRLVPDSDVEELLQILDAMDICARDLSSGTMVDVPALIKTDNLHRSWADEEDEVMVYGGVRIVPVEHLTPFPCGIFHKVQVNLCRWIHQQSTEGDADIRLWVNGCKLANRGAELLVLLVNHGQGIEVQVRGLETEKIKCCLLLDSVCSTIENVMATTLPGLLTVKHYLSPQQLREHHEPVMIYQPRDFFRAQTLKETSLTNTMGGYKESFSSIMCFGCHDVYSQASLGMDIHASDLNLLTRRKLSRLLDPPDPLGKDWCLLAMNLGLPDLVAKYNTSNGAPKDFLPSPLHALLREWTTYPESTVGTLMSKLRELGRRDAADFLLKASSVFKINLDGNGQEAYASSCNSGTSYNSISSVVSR

[29] = target: Eukaryotic elongation factor 2 kinase (Homo sapiens) (UniProt O00418); assay: Inhibition of eEF-2K (unknown origin) at 1 uM
[30] = target: Serine/threonine-protein kinase TBK1 (Homo sapiens) (UniProt Q9UHD2); assay: Inhibition of TBK1 (unknown origin) at 1 uM
[31] = target: Tyrosine-protein kinase Fgr (Homo sapiens, UniProt P09769); assay: Inhibition of FGR (unknown origin)
[32] = target: Dual specificity tyrosine-phosphorylation-regulated kinase 3 (Homo sapiens) (UniProt O43781); assay: Inhibition of DYRK3 (unknown origin) at 1 uM
Dual specificity tyrosine-phosphorylation-regulated kinase 3 (Homo sapiens), sequence (O43781 whole entry): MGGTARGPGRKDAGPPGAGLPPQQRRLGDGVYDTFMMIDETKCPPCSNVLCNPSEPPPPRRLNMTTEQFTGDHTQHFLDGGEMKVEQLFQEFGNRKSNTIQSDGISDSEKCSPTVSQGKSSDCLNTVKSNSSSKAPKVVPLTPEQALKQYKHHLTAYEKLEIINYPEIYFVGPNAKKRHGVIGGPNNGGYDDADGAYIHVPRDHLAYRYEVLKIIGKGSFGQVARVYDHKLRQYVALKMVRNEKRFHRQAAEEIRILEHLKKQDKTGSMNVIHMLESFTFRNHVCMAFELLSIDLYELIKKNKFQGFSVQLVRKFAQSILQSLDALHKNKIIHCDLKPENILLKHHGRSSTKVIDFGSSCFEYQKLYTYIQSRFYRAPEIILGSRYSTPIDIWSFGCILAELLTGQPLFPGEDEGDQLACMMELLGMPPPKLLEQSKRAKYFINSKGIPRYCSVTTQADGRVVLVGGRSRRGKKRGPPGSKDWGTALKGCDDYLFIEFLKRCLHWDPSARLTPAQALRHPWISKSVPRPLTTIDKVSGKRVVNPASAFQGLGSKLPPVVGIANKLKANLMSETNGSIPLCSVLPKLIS

[33] = target: Vascular endothelial growth factor receptor 2 (Homo sapiens) (UniProt P35968); assay: Inhibition of KDR (unknown origin) at 1 uM
[34] = target: Serine/threonine-protein kinase WNK2 (Homo sapiens) (UniProt Q9Y3S1); assay: Inhibition of WNK2 (unknown origin) at 1 uM
[35] = target: Ephrin type-A receptor 8 (Homo sapiens) (UniProt P29322); assay: Inhibition of EphA8 (unknown origin) at 1 uM
[36] = target: Serine/threonine-protein kinase SIK2 (Homo sapiens) (UniProt Q9H0K1); assay: Inhibition of SIK2 (unknown origin) at 1 uM
[37] = target: Serine/threonine-protein kinase 24 (Homo sapiens) (UniProt Q9Y6E0); assay: Inhibition of MST3 (unknown origin) at 1 uM
Serine/threonine-protein kinase 24 (Homo sapiens), sequence (Q9Y6E0 whole entry, looked up): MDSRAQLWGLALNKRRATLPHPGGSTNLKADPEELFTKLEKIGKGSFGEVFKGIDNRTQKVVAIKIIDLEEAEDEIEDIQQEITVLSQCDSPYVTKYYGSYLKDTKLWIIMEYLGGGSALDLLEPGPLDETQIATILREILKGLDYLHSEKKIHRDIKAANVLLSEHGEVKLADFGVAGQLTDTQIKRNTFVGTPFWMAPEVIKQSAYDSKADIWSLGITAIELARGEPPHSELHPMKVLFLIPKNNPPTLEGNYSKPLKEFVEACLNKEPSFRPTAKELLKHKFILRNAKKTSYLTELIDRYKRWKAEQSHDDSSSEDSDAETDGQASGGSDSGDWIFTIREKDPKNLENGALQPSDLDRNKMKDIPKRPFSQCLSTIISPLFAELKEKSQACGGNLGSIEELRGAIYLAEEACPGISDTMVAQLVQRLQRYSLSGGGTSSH

[38] = target: Myosin light chain kinase, smooth muscle (Homo sapiens) (UniProt Q15746); assay: Inhibition of MYLK(smMLCK) (unknown origin) at 1 uM
[39] = target: Casein kinase I isoform alpha (Homo sapiens) (UniProt P48729); assay: Inhibition of CK1 alpha1 (unknown origin) at 1 uM
[40] = target: Inhibitor of nuclear factor kappa-B kinase subunit beta (Homo sapiens) (UniProt O14920); assay: Inhibition of IKKbeta (unknown origin) at 1 uM
Inhibitor of nuclear factor kappa-B kinase subunit beta (Homo sapiens), sequence (O14920 whole entry): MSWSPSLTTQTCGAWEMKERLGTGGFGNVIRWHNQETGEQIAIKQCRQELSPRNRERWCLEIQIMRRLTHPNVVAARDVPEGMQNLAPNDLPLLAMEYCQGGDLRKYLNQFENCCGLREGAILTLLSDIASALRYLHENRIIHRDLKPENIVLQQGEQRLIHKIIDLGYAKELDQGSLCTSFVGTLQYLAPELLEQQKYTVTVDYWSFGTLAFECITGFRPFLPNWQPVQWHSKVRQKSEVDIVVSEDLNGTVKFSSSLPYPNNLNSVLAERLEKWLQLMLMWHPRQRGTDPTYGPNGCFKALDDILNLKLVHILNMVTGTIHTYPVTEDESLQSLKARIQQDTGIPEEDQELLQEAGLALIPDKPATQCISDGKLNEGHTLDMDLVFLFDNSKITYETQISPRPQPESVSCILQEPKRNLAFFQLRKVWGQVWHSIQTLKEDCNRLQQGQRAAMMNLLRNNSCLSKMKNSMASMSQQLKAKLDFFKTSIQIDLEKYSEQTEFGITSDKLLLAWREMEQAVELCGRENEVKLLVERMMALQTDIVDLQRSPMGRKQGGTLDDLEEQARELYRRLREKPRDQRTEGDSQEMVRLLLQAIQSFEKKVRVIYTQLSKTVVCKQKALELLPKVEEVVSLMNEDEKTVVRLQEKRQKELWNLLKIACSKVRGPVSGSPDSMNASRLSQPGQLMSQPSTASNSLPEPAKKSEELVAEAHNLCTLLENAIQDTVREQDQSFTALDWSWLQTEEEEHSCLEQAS

[41] = target: Ribosomal protein S6 kinase alpha-1 (Homo sapiens) (UniProt Q15418); assay: Inhibition of Rsk1 (unknown origin) at 1 uM
[42] = target: Serine/threonine-protein kinase Chk2 (Homo sapiens) (UniProt O96017); assay: Inhibition of CHK2 (unknown origin) at 1 uM
[43] = Cytotoxicity against human T cells assessed as cell proliferation

Serine/threonine-protein kinase 33 (Homo sapiens), sequence (Q9BYT3 whole entry, looked up): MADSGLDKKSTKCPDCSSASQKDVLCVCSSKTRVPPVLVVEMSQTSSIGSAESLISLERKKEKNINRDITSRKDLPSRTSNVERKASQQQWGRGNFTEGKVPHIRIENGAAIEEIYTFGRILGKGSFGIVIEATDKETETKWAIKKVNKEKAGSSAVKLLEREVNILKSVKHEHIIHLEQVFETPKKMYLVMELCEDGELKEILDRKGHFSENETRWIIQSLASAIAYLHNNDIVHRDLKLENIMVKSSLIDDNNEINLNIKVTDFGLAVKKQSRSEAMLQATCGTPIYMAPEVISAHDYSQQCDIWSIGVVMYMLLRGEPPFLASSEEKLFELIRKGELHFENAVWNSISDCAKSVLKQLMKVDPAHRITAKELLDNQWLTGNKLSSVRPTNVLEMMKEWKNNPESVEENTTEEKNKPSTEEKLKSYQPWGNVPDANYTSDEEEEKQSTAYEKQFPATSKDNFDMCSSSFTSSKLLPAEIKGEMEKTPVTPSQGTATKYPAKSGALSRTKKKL

- inhibition [1]: -0.3%
- inhibition [2]: 8.3%
- IC50 [3]: 91 nM
- inhibition [4]: 0.8%
- inhibition [5]: 6%
- inhibition [6]: -2.6%
- inhibition [7]: 6.4%
- IC50 [8]: 230 nM
- inhibition [9]: 8.6%
- inhibition [10]: 13.7%
- EC50 (Monocyte): 37 nM
- inhibition [11]: -9.9%
- inhibition [12]: 0.6%
- inhibition [13]: 1.1%
- inhibition [14]: 6.1%
- inhibition [15]: -5.8%
- inhibition [16]: -3.8%
- inhibition [17]: -3.9%
- inhibition [18]: -3.1%
- inhibition [19]: -0.9%
- EC50 (Blood): 257 nM
- inhibition [20]: 8.7%
- inhibition [21]: -5.5%
- inhibition [22]: -5.4%
- inhibition [23]: 0.8%
- inhibition [24]: -3.9%
- bioavailability [25]: 65%
- inhibition [26]: -4.8%
- inhibition [27]: 10.6%
- inhibition [29]: 3%
- inhibition [30]: 7.5%
- IC50 [31]: 1030 nM
- inhibition [32]: 3.3%
- inhibition [33]: -2.4%
- inhibition [34]: -7.5%
- inhibition [35]: 7.2%
- inhibition [36]: -3.9%
- inhibition [37]: 9%
- inhibition [38]: -0.8%
- inhibition [39]: 4%
- inhibition [40]: 2.2%
- inhibition [41]: -0.4%
- inhibition [42]: -3.8%
SMILES: Cc1c(-c2cc(Nc3cc4n(n3)CCN(C)C4)c(=O)[nH]n2)ccc(F)c1NC(=O)c1cc2ccccc2s1
- inhibition [28]: 0.1%
- EC50 [43]: > 5000 nM
